One block for each compound: values may come before it.
Legend:
[1] = Stability in human liver homogenate (metabolic stability in vitro); assay type: in vitro ADME; details: read-out: t ½
Excerpt: DÖRJE, F., WESS, J., LAMBRECHT, G., TACKE, R., […], E. and BRANN, M. R. (1991) Antagonist binding profiles of five cloned human muscarinic receptor subtypes. J. Pharmacol. Exp. Ther., 256: 727-733. • […], M. H. (1990) Rat hippocampal muscarinic autoreceptors are similar to the M2 (cardiac) subtype: comparison with hippocampal M1, atrial M2 and ileal M3 receptors. Brit. J. Pharmacol., 99: 753-761. • PERALTA, E. G., ASHKENAZI, A., WINSLOW, J. W., SMITH, D. H., […], J. and CAPON, D. J. (1987) Distinct primary structures, ligand-binding properties and tissue-specific expression of four human muscarinic acetylcholine receptors. EMBO. J., 6: 3923-3929. Determination of Metabolic Stability (In Vitro)
Method used according to procedures described by DI, L. et al., Journal of Biomolecular Screening, Vol. 8, No. 4, 453-462 (2003).

[2] = in words, background section; cited from earlier work
[3] = target: T1, Muscarine M4 (GPCR-A-MA-ACH M4) (Homo sapiens, UniProt P08173); details: read-out: Ligand Kd; cited from earlier work
T1 construct: expressed in transfected cells; host or cells: CHO cells
T1 sequence (P08173 1-479): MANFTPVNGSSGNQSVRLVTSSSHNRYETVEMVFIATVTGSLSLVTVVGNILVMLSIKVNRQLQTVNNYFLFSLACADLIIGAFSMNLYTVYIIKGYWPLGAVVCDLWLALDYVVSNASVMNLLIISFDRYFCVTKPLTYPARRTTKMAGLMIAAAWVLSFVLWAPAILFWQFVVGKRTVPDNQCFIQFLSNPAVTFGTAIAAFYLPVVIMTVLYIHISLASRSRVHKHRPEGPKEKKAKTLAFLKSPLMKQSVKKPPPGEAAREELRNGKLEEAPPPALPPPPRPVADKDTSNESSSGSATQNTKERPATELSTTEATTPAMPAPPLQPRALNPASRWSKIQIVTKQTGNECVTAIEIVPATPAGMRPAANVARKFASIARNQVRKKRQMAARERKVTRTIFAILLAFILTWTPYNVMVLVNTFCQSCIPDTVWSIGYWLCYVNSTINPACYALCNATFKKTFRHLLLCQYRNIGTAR

[4] = target: T2, Muscarine M3 (GPCR-A-MA-ACH M3) (Cavia porcellus, UniProt H0W1Z3); assay: Muscarine M3 functional assay, isolated organ (ileum), agonist and antagonist mode; design: species or system Guinea Pig
T2 construct: from tissue; host or cells: guinea pig ileum

[5] = tested on: Muscarine M1 (GPCR-A-MA-ACH M1); assay: Muscarine M1 functional assay, isolated organ (vas deferens, field-stimulated); details: assay characteristic; Muscarine M1, rabbit vas deferens, inhibition of twitch contraction; read-out: Reference Agonist Ligand EC50
Method: Compounds were dissolved in DMSO (10 mM) and diluted in assay buffer to test concentration. Prime testing was at 1 μM; for actives in antagonist mode (PI, percent inhibition with respect to reference agonist and blank>30%) as well as actives in agonist mode (PS, percent stimulation with respect to reference agonist and blank>30%) testing was continued at lower concentrations in 10-fold dilutions: 0.1 μM, 0.01 μM, etc.
The tissues were exposed to a maximal concentration of the respective reference agonist to verify responsiveness and to obtain a control response. Following extensive washings and recovery of the initial state, the tissues were exposed to the test compounds or the same agonist. […]
The parameters measured were the maximum change in the amplitude of the electrically-evoked contractions (M1 and M2 receptor assays) or in tension (M3 receptor assay) induced by each compound concentration. The results are expressed as a percent of the control agonist-induced response. The EC50 values of the reference agonists (concentration producing a half-maximum response) and IC50 values of the reference antagonists (concentration producing a half-maximum inhibition of the agonist-induced response) were calculated by […] analysis of their concentration-response curves.

[6] = target: T3, Muscarine M2 (GPCR-A-MA-ACH M2) (Homo sapiens, UniProt P08172); details: read-out: Ligand Kd; cited from earlier work
T3 construct: expressed in transfected cells; host or cells: CHO cells
T3 sequence (P08172 1-466): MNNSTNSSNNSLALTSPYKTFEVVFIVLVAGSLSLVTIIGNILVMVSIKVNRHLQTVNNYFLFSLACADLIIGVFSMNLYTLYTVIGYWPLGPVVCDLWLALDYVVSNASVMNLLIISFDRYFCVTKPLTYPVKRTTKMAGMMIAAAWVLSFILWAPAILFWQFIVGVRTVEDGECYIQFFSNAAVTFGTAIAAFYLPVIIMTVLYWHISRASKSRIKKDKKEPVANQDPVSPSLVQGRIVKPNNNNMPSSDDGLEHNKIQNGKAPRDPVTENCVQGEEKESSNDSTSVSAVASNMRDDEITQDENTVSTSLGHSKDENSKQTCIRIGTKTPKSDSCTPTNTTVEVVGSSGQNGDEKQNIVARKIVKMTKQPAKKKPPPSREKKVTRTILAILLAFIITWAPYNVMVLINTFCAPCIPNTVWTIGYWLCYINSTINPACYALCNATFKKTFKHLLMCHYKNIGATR

T2 sequence (H0W1Z3 1-590): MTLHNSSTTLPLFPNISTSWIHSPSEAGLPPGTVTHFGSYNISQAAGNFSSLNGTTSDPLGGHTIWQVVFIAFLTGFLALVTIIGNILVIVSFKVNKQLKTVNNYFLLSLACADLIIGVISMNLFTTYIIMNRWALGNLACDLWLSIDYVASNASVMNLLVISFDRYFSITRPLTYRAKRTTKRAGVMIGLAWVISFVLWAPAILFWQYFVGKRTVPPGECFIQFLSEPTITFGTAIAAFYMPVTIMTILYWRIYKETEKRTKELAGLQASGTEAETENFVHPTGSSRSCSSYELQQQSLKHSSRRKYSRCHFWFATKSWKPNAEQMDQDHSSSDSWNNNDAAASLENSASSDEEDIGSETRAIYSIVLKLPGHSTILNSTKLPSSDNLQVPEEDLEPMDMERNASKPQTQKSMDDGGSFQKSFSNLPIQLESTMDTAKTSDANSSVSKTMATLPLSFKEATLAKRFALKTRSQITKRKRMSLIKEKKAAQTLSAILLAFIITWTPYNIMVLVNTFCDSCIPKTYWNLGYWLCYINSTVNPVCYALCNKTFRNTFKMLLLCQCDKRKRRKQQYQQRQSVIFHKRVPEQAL

half-life [1]: 17 min
Compound: CCCCCCOc1nsnc1C1=CCCN(C)C1 [Xanomeline, reference compound]
(in vitro) metabolic stability [2]: relatively low

Compound: 3H-Oxotremorine
Kd [3]: 4.5 nM

Compound: C[N+](C)(C)CC#CCOC(=O)Nc1cccc(Cl)c1.[Cl-] [McN-A-343, reference compound]
Cell funct. Musc. M3 Agonism pEC50 [4]: 6.9 | EC50 [5]: 250 nM

Compound: CCCN(CCC)CC1CCCCN1CCNC(=O)N1c2ccccc2C(=O)Nc2cccnc21 (stereo not drawn) [Compound 3H-AFDX384, 3H-AFDX384]
Kd [6]: 4.3 nM

— patent US8735388B2, “Heterocyclic compounds with affinity to muscarinic receptors” (Abbvie B. V. A., priority 2007, dated 2014)
